Laboratory results as given in patent EP3154958B1, “PHOSPHATIDYLINOSITOL 3-KINASE INHIBITORS” (Gilead Sciences, Inc., priority 2014, dated 2015).
Where two headings read alike, the source gives them in different places.

Legend:
Assay type in all cases: biochemical
[1] = biological target: T1, PI3Kγ (Homo sapiens, UniProt P48736); assay: TR-FRET enzymatic activity assay, PI3Kγ
T1 construct: made in house
Description: (§1) The compounds of formula (I) were characterized for their enzymatic activity against the PI3K isoforms. The activities were measured using a time-resolved fluorescence resonance energy transfer (TR-FRET) assay.

[2] = biological target: T2, PI3Kβ (Homo sapiens, UniProt P42338); assay: TR-FRET enzymatic activity assay, PI3Kβ
T2 construct: made in house
Description: as §1

[3] = biological target: T3, PI3Kδ (Homo sapiens, UniProt O00329); assay: TR-FRET enzymatic activity assay, PI3Kδ
T3 construct: made in house
Description: as §1

[4] = recombinant heterodimeric PI3Kγ 2 nM, 2× Km ATP, 30 minutes at 25°C
[5] = recombinant heterodimeric PI3Kβ 25-50 pM, 2× Km ATP, 30 minutes at 25°C
[6] = recombinant heterodimeric PI3Kδ 25-50 pM, 2× Km ATP, 30 minutes at 25°C

T3 sequence (O00329 whole entry): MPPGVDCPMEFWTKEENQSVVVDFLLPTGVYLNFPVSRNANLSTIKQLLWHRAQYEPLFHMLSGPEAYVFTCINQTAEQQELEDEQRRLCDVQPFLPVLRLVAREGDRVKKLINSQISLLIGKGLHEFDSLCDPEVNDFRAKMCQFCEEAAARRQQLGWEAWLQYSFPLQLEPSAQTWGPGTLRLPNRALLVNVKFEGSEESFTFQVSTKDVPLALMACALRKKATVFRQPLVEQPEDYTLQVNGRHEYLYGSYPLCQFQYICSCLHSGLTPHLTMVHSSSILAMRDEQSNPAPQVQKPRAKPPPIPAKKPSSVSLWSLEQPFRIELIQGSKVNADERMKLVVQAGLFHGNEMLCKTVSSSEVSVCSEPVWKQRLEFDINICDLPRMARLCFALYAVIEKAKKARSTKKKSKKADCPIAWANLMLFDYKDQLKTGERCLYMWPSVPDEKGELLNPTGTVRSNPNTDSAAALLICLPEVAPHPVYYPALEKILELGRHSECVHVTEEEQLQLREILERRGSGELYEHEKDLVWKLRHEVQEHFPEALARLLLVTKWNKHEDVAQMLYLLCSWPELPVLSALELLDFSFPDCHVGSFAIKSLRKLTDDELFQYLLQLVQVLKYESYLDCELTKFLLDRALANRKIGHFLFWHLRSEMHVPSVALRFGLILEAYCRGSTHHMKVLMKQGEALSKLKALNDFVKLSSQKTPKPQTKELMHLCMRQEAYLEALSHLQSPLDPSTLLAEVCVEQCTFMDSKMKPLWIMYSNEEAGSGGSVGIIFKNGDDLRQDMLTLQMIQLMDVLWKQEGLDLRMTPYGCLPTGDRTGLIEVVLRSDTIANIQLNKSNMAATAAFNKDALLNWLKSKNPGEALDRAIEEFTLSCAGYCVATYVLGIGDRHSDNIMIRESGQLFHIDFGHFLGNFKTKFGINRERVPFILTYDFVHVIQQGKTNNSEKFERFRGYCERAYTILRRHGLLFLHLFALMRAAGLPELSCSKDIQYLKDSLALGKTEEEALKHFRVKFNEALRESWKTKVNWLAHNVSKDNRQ
T3 sequence (P27986 whole entry partner): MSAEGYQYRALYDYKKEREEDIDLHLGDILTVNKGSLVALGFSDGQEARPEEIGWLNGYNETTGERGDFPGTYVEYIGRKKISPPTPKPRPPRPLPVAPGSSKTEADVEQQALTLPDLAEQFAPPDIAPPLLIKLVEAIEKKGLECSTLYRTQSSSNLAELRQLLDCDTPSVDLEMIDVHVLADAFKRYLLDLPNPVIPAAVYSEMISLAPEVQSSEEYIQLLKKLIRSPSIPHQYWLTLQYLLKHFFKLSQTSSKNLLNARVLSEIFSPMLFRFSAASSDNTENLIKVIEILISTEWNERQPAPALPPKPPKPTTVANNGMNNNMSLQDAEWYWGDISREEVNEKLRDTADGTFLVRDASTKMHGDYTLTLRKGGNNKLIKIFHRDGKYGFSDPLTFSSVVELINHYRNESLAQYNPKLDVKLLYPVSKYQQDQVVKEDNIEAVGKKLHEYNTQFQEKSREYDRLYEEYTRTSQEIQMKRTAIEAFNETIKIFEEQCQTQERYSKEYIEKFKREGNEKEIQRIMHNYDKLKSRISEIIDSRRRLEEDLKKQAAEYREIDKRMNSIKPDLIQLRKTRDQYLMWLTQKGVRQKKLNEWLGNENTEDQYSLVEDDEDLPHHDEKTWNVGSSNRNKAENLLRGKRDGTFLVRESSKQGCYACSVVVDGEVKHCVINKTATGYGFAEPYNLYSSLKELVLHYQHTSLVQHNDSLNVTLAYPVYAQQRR
T2 sequence (P42338 whole entry): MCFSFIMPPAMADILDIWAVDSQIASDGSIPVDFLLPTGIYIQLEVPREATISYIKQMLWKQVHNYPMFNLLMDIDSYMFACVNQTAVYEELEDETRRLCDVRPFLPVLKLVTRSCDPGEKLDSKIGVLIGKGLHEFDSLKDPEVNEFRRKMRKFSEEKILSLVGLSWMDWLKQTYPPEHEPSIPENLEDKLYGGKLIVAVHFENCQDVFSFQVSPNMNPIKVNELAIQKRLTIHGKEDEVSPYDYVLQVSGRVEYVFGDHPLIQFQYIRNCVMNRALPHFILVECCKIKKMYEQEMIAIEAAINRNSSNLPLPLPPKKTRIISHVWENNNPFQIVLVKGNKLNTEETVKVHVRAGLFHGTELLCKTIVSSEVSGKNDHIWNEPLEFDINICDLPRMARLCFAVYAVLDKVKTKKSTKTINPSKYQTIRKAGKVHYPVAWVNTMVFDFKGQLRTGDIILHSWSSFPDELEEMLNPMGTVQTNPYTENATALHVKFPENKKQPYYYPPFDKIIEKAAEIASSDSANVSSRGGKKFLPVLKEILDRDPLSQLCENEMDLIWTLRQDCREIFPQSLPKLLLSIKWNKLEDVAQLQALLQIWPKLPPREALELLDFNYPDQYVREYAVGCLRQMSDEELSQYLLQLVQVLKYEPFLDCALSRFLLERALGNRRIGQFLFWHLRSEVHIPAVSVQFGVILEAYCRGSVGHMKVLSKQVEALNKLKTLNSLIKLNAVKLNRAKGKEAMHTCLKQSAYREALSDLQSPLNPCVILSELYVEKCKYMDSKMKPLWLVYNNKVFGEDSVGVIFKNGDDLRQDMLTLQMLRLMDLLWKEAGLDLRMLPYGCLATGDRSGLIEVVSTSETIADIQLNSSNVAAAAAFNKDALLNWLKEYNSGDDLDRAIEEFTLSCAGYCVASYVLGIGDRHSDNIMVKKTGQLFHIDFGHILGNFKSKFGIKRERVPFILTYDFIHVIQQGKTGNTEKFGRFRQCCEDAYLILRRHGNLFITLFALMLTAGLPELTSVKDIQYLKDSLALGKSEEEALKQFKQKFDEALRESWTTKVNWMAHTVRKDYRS
T2 sequence (P27986 whole entry partner): as the sequence (P27986 whole entry partner) above
T1 sequence (P48736 whole entry): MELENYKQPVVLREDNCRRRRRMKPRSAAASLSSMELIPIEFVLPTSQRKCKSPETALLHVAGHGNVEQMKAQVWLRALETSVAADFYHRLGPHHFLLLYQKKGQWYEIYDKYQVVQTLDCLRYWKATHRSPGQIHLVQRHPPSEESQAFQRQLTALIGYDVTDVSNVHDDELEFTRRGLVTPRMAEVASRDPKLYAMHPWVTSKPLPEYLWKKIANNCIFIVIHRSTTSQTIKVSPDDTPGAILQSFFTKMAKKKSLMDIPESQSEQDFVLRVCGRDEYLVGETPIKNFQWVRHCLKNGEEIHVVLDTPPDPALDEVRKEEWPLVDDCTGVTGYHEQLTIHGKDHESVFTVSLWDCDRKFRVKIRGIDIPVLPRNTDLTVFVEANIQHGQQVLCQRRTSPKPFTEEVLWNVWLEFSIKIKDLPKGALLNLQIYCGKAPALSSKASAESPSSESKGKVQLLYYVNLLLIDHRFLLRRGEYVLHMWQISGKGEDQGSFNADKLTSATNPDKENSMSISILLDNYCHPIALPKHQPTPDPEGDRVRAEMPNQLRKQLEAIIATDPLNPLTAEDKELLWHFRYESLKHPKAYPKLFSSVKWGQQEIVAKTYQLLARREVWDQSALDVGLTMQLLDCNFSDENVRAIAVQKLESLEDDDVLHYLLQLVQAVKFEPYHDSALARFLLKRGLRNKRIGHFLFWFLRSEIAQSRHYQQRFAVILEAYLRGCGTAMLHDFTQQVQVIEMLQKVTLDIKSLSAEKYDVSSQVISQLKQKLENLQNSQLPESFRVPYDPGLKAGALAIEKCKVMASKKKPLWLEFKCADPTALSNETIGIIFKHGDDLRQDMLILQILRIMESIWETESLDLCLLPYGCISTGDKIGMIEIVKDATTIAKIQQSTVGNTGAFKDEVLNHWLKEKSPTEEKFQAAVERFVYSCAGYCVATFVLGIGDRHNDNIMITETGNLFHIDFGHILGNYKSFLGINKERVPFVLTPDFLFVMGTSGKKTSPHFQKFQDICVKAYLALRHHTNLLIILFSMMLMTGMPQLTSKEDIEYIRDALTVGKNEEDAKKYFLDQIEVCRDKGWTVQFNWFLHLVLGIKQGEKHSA
T1 sequence (Q8WYR1 whole entry partner): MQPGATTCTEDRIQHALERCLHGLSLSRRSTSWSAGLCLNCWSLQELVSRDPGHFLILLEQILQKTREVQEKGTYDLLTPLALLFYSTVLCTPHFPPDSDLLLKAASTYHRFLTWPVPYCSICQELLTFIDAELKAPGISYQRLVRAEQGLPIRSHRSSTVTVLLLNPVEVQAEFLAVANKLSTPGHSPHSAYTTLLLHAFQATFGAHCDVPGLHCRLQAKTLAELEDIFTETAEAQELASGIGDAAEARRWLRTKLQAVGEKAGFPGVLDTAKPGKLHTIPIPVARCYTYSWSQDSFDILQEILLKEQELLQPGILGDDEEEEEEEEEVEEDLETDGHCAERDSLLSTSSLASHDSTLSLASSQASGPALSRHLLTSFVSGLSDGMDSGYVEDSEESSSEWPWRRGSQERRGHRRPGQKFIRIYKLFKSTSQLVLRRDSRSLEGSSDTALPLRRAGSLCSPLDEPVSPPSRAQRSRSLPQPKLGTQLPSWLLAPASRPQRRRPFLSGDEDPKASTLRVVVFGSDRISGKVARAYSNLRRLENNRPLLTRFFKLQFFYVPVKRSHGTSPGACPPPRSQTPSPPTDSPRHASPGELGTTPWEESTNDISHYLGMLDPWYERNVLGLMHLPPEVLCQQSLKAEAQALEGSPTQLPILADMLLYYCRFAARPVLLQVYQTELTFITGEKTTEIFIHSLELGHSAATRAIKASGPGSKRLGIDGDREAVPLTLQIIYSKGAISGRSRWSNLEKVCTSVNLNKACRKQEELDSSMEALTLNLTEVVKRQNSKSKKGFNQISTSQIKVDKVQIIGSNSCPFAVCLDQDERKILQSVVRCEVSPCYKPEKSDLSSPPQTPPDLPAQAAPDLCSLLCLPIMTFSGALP

| IC50 [1, 4] [nM] | IC50 [2, 5] [nM] | IC50 [3, 6] [nM] | IC50 [1] [nM] | IC50 [2] [nM] | IC50 [3] [nM] | Compound |
| --- | --- | --- | --- | --- | --- | --- |
| 2900 | 1 | 1 |  |  |  | N#Cc1c(N)nc(N)nc1N[C@H](c1nc2cccc(Cl)c2c(=O)n1N1CCNCC1)C1CC1 [Compound 77, (S)-2,4-diamino-6-(((5-chloro-4-oxo-3-(piperazin-1-yl)-3,4-dihydroquinazolin-2-yl)(cyclopropyl)methyl)amino)pyrimidine-5-carbonitrile] |
| > 10000 | 14 | 1 |  |  |  | C[C@H](Nc1ncnc(N)c1C#N)c1nc2cccc(Cl)c2c(=O)n1N1CCNCC1 [Compound 55, (S)-4-amino-6-((1-(5-chloro-4-oxo-3-(piperazin-1-yl)-3,4-dihydroquinazolin-2-yl)ethyl)amino)pyrimidine-5-carbonitrile] |
| 5300 | 1800 | 37 |  |  |  | C[C@H](Nc1ncnc2scnc12)c1nc2cccc(Cl)c2c(=O)n1N1CCN(CC(F)F)CC1 [Compound 115, (S)-5-chloro-3-(4-(2,2-difluoroethyl)piperazin-1-yl)-2-(1-(thiazolo[5,4-d]pyrimidin-7-ylamino)ethyl)quinazolin-4(3H)-one] |
| > 10000 | 7800 | 280 |  |  |  | C[C@H](Nc1nc(N)nc(N)c1Cl)c1nc2cccc(Cl)c2c(=O)n1N1CCN(CC(F)F)CC1 [Compound 112, (S)-5-chloro-2-(1-((2,6-diamino-5-chloropyrimidin-4-yl)amino)ethyl)-3-(4-(2,2-difluoroethyl)piperazin-1-yl)quinazolin-4(3H)-one] |
| > 10000 | 62 | 1 |  |  |  | C[C@H](Nc1ncnc(N)c1C#N)c1nc2cccc(Cl)c2c(=O)n1N1CCC(N)C1 (stereo partly drawn) [Compound 130, 4-amino-6-(((1S)-1-(3-(3-aminopyrrolidin-1-yl)-5-chloro-4-oxo-3,4-dihydroquinazolin-2-yl)ethyl)amino)pyrimidine-5-carbonitrile] |
| 660 | 290 | 14 |  |  |  | Cc1nc(N)nc(N[C@@H](C)c2nc3cccc(Cl)c3c(=O)n2N2CCN(CC(F)(F)F)CC2)c1C#N [Compound 109, (S)-2-amino-4-((1-(5-chloro-4-oxo-3-(4-(2,2,2-trifluoroethyl)piperazin-1-yl)-3,4-dihydroquinazolin-2-yl)ethyl)amino)-6-methylpyrimidine-5-carbonitrile] |
| 4900 | 5 | 4 |  |  |  | C[C@H](Nc1nc(N)nc(N)c1C#N)c1nc2c(Cl)cc(F)cc2c(=O)n1N1CCNCC1 [Compound 126, (S)-2,4-diamino-6-((1-(8-chloro-6-fluoro-4-oxo-3-(piperazin-1-yl)-3,4-dihydroquinazolin-2-yl)ethyl)amino)pyrimidine-5-carbonitrile] |
| 1900 | 4 | 2 |  |  |  | C[C@H](Nc1nc(N)nc(N)c1C#N)c1nc2c(F)ccc(Cl)c2c(=O)n1N1CCNCC1 [Compound 54, (S)-2,4-diamino-6-((1-(5-chloro-8-fluoro-4-oxo-3-(piperazin-1-yl)-3,4-dihydroquinazolin-2-yl)ethyl)amino)pyrimidine-5-carbonitrile] |
| 400 | 150 | 0.9 |  |  |  | C[C@H](Nc1nc(N)nc(N)c1C#N)c1nc2cccc(Cl)c2c(=O)n1N1CCNC(C(F)(F)F)C1 (stereo partly drawn) [Compound 61, 2,4-diamino-6-(((1S)-1-(5-chloro-4-oxo-3-(3-(trifluoromethyl)piperazin-1-yl)-3,4-dihydroquinazolin-2-yl)ethyl)amino)pyrimidine-5-carbonitrile] |
|  |  |  | 1200 | 3 | 1 | C[C@H](Nc1nc(N)nc(N)c1C#N)c1nc2cccc(Cl)c2c(=O)n1C1[C@H]2CNC[C@@H]12 (stereo in doubt) [Compound 19, 4-(((1S)-1-(3-((1R,5S)-3-azabicyclo[3.1.0]hexan-6-yl)-5-chloro-4-oxo-3,4-dihydroquinazolin-2-yl)ethyl)amino)-2,6-diaminopyrimidine-5-carbonitrile] |
| > 10000 | 22 | 2 |  |  |  | C[C@H](Nc1ncnc(N)c1C#N)c1nc2cccc(Cl)c2c(=O)n1N1CCCNCC1 [Compound 67, (S)-4-amino-6-((1-(5-chloro-3-(1,4-diazepan-1-yl)-4-oxo-3,4-dihydroquinazolin-2-yl)ethyl)amino)pyrimidine-5-carbonitrile] |
| 2800 | 3 | 4 |  |  |  | C[C@H](Nc1nc(N)nc(N)c1C#N)c1nc2c(F)ccc(Cl)c2c(=O)n1C1[C@H]2CNC[C@@H]12 (stereo in doubt) [Compound 17, 4-(((1S)-1-(3-((1R,5S)-3-azabicyclo[3.1.0]hexan-6-yl)-5-chloro-8-fluoro-4-oxo-3,4-dihydroquinazolin-2-yl)ethyl)amino)-2,6-diaminopyrimidine-5-carbonitrile] |
| > 10000 | 6100 | 170 |  |  |  | C[C@H](Nc1nc(N)nc(N)c1Cl)c1nc2cccc(Cl)c2c(=O)n1N1CCN(CC(F)(F)F)CC1 [Compound 108, (S)-5-chloro-2-(1-((2,6-diamino-5-chloropyrimidin-4-yl)amino)ethyl)-3-(4-(2,2,2-trifluoroethyl)piperazin-1-yl)quinazolin-4(3H)-one] |
| > 10000 | 19 | 2 |  |  |  | C[C@H](Nc1ncnc2scnc12)c1nc2c(Cl)ccc(Cl)c2c(=O)n1N1CCNCC1 [Compound 49, (S)-5,8-dichloro-3-(piperazin-1-yl)-2-(1-(thiazolo[5,4-d]pyrimidin-7-ylamino)ethyl)quinazolin-4(3H)-one] |
| 650 | 14 | 17 |  |  |  | Cc1nc(N)nc(N[C@@H](C)c2nc3c(F)ccc(Cl)c3c(=O)n2N2CCN(Cc3ccccc3)CC2)c1C#N [Compound 118, (S)-2-amino-4-((1-(3-(4-benzylpiperazin-1-yl)-5-chloro-8-fluoro-4-oxo-3,4-dihydroquinazolin-2-yl)ethyl)amino)-6-methylpyrimidine-5-carbonitrile] |
| > 10000 | 2 | 3 |  |  |  | Cc1nc(N)nc(N[C@@H](C)c2nc3cccc(Cl)c3c(=O)n2C2CCNCC2)c1C#N [Compound 24, (S)-2-amino-4-((1-(5-chloro-4-oxo-3-(piperidin-4-yl)-3,4-dihydroquinazolin-2-yl)ethyl)amino)-6-methylpyrimidine-5-carbonitrile] |
| > 10000 | 10000 | 57 |  |  |  | CC[C@H](Nc1nc(N)nc(N)c1C#N)c1nc2cccc(Cl)c2c(=O)n1N1CCN(Cc2ccc(C(F)(F)F)cc2)CC1 [Compound 87, (S)-2,4-diamino-6-((1-(5-chloro-4-oxo-3-(4-(4-(trifluoromethyl)benzyl)piperazin-1-yl)-3,4-dihydroquinazolin-2-yl)propyl)amino)pyrimidine-5-carbonitrile] |
| > 10000 | 83 | 3 |  |  |  | C[C@H](Nc1ncnc(N)c1C#N)c1nc2cccc(Cl)c2c(=O)n1C1CCNCC1 [Compound 86, (S)-4-amino-6-((1-(5-chloro-4-oxo-3-(piperidin-4-yl)-3,4-dihydroquinazolin-2-yl)ethyl)amino)pyrimidine-5-carbonitrile] |
| 7400 | 3 | 1 |  |  |  | C[C@H](Nc1ncnc2[nH]cc(Br)c12)c1nc2cccc(Cl)c2c(=O)n1N1CCNCC1 [Compound 69, (S)-2-(1-((5-bromo-7H-pyrrolo[2,3-d]pyrimidin-4-yl)amino)ethyl)-5-chloro-3-(piperazin-1-yl)quinazolin-4(3H)-one] |
| 2600 | 2 | 1 |  |  |  | Cc1nc(N)nc(N[C@H](c2nc3cccc(Cl)c3c(=O)n2N2CCNCC2)C2CC2)c1C#N [Compound 46, (S)-2-amino-4-(((5-chloro-4-oxo-3-(piperazin-1-yl)-3,4-dihydroquinazolin-2-yl)(cyclopropyl)methyl)amino)-6-methylpyrimidine-5-carbonitrile] |
| > 10000 |  |  |  |  |  | Cc1nc(N)nc(N[C@@H](C)c2nc3cccc(Cl)c3c(=O)n2[C@H]2CCCNCC2)c1C#N [Compound 10, 2-amino-4-(((S)-1-(3-((S)-azepan-4-yl)-5-chloro-4-oxo-3,4-dihydroquinazolin-2-yl)ethyl)amino)-6-methylpyrimidine-5-carbonitrile] |
| 710 |  |  |  |  |  | C[C@H](Nc1nc(N)nc(N)c1C#N)c1nc2cccc(Cl)c2c(=O)n1N1CCNCC1 [Compound 57, (S)-2,4-diamino-6-((1-(5-chloro-4-oxo-3-(piperazin-1-yl)-3,4-dihydroquinazolin-2-yl)ethyl)amino)pyrimidine-5-carbonitrile] |
|  | 4 | 3 |  | 27 | 6 | C[C@H](Nc1nc(N)nc(N)c1C#N)c1nc2c(Cl)ccc(Cl)c2c(=O)n1N1CCNCC1 [Compound 53, (S)-2,4-diamino-6-((1-(5,8-dichloro-4-oxo-3-(piperazin-1-yl)-3,4-dihydroquinazolin-2-yl)ethyl)amino)pyrimidine-5-carbonitrile] |
|  | 21 | 230 |  |  |  | C[C@H](NC(=O)c1nccnc1N)c1nc2cccc(Cl)c2c(=O)n1N1CCNCC1 [Compound 56, (S)-3-amino-N-(1-(5-chloro-4-oxo-3-(piperazin-1-yl)-3,4-dihydroquinazolin-2-yl)ethyl)pyrazine-2-carboxamide] |
| > 10000 |  |  |  |  |  | Cc1nc(N)nc(N[C@@H](C)c2nc3cccc(Cl)c3c(=O)n2[C@@H]2CCCNCC2)c1C#N [Compound 11, 2-amino-4-(((S)-1-(3-((R)-azepan-4-yl)-5-chloro-4-oxo-3,4-dihydroquinazolin-2-yl)ethyl)amino)-6-methylpyrimidine-5-carbonitrile] |
